According to publication PMC8655237 (Journal of Advanced Research, 2021):

Legend:
HEK-293 = test: Cytotoxicity to normal cell line; assay type: cell-based, human; settings: higher tested concentration (100 µM)
A431 cells = test: Mitochondrial membrane potential; assay type: cell-based, human; settings: for total of FITC mean (Rh123): A431, flow cytometry
A431 [1] = test: Cell cycle analysis by flow cytometry; assay type: cell-based, human; settings: A431, 24 h
PC-3 [2] = test: MTT antiproliferative assay; assay type: cell-based; settings: Homo sapiens, PC-3, 24 h, read-out: IC50 (MTT)
mTOR = mTOR quantification by ELISA in A431 cells; assay type: cell-based, human; settings: A431, 100 µM, 24 h
A431 [3] = test: MTT antiproliferative assay; assay type: cell-based; settings: Homo sapiens, A-431, 24 h, read-out: IC50 (MTT)
DHFR mRNA = test: Real-time qPCR expression analysis; assay type: cell-based, human; settings: A549, with respect to control, GAPDH internal control
COX-2 = molecular target: T1, COX-2 (Homo sapiens, UniProt P35354); test: cell-based; settings: IC50 COX-2, cell based
T1 sequence (P35354 18-604): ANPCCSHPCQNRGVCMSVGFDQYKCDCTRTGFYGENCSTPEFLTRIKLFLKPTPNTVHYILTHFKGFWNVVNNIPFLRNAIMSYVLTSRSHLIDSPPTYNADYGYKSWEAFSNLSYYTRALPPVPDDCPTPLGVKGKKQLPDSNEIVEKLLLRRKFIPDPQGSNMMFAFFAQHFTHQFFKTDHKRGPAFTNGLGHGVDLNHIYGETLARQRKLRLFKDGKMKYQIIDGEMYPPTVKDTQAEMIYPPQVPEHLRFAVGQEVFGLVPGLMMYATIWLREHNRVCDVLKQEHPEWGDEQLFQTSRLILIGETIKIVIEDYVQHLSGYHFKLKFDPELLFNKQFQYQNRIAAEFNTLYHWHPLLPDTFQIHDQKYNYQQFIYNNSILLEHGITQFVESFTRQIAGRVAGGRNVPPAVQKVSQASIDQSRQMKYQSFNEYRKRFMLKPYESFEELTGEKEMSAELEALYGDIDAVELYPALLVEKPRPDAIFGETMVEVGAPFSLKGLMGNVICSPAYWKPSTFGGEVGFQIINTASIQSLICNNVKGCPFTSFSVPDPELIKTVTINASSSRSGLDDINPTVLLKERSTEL

[4] = tested on: Ornithine decarboxylase (ODC); test: ODC assay, cell-free; assay type: biochemical; settings: read-out: IC50 ODC; cell free (In vitro)
[5] = ref https://chem.nlm.nih.gov/chemidplus/rn/3623–51-6; cited from earlier work
PC-3 [6] = test: Cell cycle analysis by flow cytometry; assay type: cell-based, human; settings: PC-3, 24 h
COX-2 mRNA = test: Real-time qPCR expression analysis; assay type: cell-based, human; settings: GAPDH internal control
PI3K = PI3K quantification by ELISA in A431 cells; assay type: cell-based, human; settings: A431, 100 µM, 24 h
MDA-MB-231 = test: Cell cycle analysis by flow cytometry; assay type: cell-based, human; settings: MDA-MB-231, 24 h
LOX-5 = LOX-5 (Homo sapiens, UniProt P09917); test: LOX-5 assay, cell-based; settings: IC50 LOX-5, cell based, K562
Chain of LOX-5 (P09917 whole entry): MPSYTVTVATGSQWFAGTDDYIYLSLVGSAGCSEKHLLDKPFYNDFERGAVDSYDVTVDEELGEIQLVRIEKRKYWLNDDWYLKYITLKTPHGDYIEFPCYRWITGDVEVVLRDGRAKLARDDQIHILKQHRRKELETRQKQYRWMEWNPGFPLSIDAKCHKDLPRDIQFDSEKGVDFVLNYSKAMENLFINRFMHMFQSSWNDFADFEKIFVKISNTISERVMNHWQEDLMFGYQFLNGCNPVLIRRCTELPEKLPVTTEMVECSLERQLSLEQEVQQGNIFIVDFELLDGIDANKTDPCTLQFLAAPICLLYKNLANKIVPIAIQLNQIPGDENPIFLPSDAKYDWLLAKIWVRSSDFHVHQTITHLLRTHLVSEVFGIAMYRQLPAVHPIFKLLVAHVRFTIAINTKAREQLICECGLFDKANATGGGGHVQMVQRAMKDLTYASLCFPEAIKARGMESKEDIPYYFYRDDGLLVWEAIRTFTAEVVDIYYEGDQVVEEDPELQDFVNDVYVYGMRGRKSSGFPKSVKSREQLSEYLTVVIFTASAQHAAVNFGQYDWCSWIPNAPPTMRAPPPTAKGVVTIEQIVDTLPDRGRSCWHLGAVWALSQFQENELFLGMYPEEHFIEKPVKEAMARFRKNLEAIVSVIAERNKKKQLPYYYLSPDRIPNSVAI

HYAL mRNA = test: Real-time qPCR expression analysis; assay type: cell-based, human; settings: GAPDH internal control
A431 [7] = test: SRB antiproliferative assay; assay type: cell-based; settings: Homo sapiens, A-431, 24 h, read-out: IC50 (SRB)
LOX-5 mRNA = test: Real-time qPCR expression analysis; assay type: cell-based, human; settings: GAPDH internal control
HDAC-6 = HDAC-6 quantification by ELISA in A431 cells; assay type: cell-based, human; settings: A431, 100 µM, 24 h

## CC(C)[C@@H]1CC[C@@H](C)C[C@@H]1O [neomenthol, (+)-Neomenthol]
HEK-293
  cytotoxicity to HEK-293: non-cytotoxic
A431 cells; 10 µM
  total of FITC mean (Rh123): 3101 ± 1.41
A431 cells; 100 µM
  total of FITC mean (Rh123): 2913 ± 1.41
A431 cells; A431, highest concentration, 24 h, spectrofluorometer
  percent decrease of mitochondrial membrane potential concerning control: 13.05 ± 2.6%
A431 [1]
  cell cycle phase arrested: G2/M phase
PC-3 [2]
  IC50: 20.1 ± 0.82 µM
mTOR
  mTOR level (ng/mg of protein): 0.336 ± 0.108 ng/mg
A431 [3]
  IC50: 17.3 ± 6.49 µM
DHFR mRNA
  DHFR mRNA expression level: 1.17 fold change
COX-2; A431
  IC50: 39.1 ± 6.39 µM
COX-2; FaDu
  IC50: 87.2 ± 5.24 µM
COX-2; PC-3
  IC50: 62.2 ± 10.7 µM
[4]
  IC50: 20.2 ± 1.09 µM
[5]
  LD50: 4000 mg/kg
PC-3 [6]
  cell cycle phase arrested: arrest of the G0/G1 phase
COX-2 mRNA; A431, with respect to control
  COX-2 mRNA expression level: 1.34 fold change
COX-2 mRNA; A549, with respect to control
  COX-2 mRNA expression level: 1.09 fold change
COX-2 mRNA; FaDu, with respect to control
  COX-2 mRNA expression level: 1.38 fold change
COX-2 mRNA; MDA-MB-231, with respect to control
  COX-2 mRNA expression level: 1.16 fold change
COX-2 mRNA; PC-3, with respect to control
  COX-2 mRNA expression level: 1.19 fold change
PI3K
  PI3K level (ng/mg of protein): 0.006 ± 0.00021 ng/mg
MDA-MB-231
  cell cycle phase arrested: arrests the S-phase
LOX-5
  IC50: 72.2 ± 2.19 µM
HYAL mRNA; A431, with respect to control
  HYAL mRNA expression level: 1.52 fold change
HYAL mRNA; FaDu, with respect to control
  HYAL mRNA expression level: 1.06 fold change
HYAL mRNA; PC-3, with respect to control
  HYAL mRNA expression level: 1.37 fold change
A431 [7]
  IC50: 82.1 ± 1.97 µM
LOX-5 mRNA; A431, with respect to control
  LOX-5 mRNA expression level: 1.25 fold change
LOX-5 mRNA; FaDu, with respect to control
  LOX-5 mRNA expression level: 1.26 fold change
LOX-5 mRNA; K562, with respect to control
  LOX-5 mRNA expression level: 1.10 fold change
HDAC-6
  HDAC-6 level (ng/mg of protein): 0.104 ± 0.001 ng/mg
